Assay results published in PubChem BioAssay (NCI).
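These data come from cells grown in 96-well plates and exposed to compound for 48 hours at five concentrations. TGI is the concentration that stops growth completely.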 Where a SMILES comes first, the peptide text is derived from it. Side-chain parts run from the residue outwards. The star is where a group is joined. Cbz = O=C(OCc1ccccc1)*; Boc = CC(C)(C)OC(=O)*

Experiments:
Assay in all cases: inhibition of tumour cell growth, NCI panel, 48 h
EKVX NSCLC = tested on: EKVX NSCLC
SK-OV-3 ovarian = tested on: SK-OV-3 ovarian
SF-539 CNS = tested on: SF-539 CNS
HCC-2998 colon = tested on: HCC-2998 colon
HCT-15 colon = tested on: HCT-15 colon
SNB-75 CNS = tested on: SNB-75 CNS
MOLT-4 leukemia = tested on: MOLT-4 leukemia
COLO 205 colon = tested on: COLO 205 colon
SN12C renal = tested on: SN12C renal
SR leukemia = tested on: SR leukemia

SMILES	TGI (EKVX NSCLC)	TGI (SK-OV-3 ovarian)	TGI (SF-539 CNS)	TGI (HCC-2998 colon)	TGI (HCT-15 colon)	TGI (SNB-75 CNS)	TGI (MOLT-4 leukemia)	TGI (COLO 205 colon)	TGI (SN12C renal)	TGI (SR leukemia)
O=NN1C(c2ccccc2)CCCC1c1ccccc1 (centres undefined)	99.1 µM	> 82.3 µM	> 100 µM	> 100 µM	> 100 µM	> 77.6 µM	> 100 µM	> 100 µM	> 100 µM	
CC(=O)O[C@H]1C[C@](C)(O)[C@@]23CC([C@@H](OC(=O)C(C)(C)O)[C@@H](OC(C)=O)C2(COC(=O)c2ccccc2)[C@H]1OC(C)=O)C(C)(C)O3 (some centres undefined)	> 100 µM	> 100 µM	> 100 µM	> 100 µM	> 100 µM		> 100 µM	> 100 µM	> 100 µM	
CC1=NN(C(=O)Cc2ccccc2)C(=O)/C1=C\c1ccccc1O	> 100 µM	> 100 µM	> 100 µM	> 100 µM	> 100 µM		> 100 µM	> 100 µM	> 100 µM	
COc1ccc(C2=NNC(c3cc4cc(Br)ccc4nc3Cl)C2)cc1 (centres undefined)	> 25 µM			> 25 µM		> 25 µM	> 25 µM	> 25 µM	> 25 µM	> 25 µM
Cn1nc2ccc3nccc(NCCNCCO)c3c2n1		> 100 µM	> 100 µM	> 100 µM	> 100 µM	> 100 µM	69 µM	44 µM	> 100 µM	> 100 µM
C[C@]12CC[C@H](O)CC1=CC[C@@H]1[C@@H]2CC[C@]2(C)C(=O)/C(=C/c3ccc([N+](=O)[O-])cc3)C[C@@H]12	24.9 µM	22.6 µM	20.9 µM	> 100 µM	> 100 µM	9.67 µM	> 100 µM		33 µM	> 100 µM
CC1CCOc2ccc(cc2)C=Nc2ccc(cc2)-c2ccc(cc2)N=Cc2ccc(cc2)OCC1 (centres undefined)	> 100 µM	> 100 µM	> 100 µM	> 100 µM	> 100 µM		> 100 µM	> 100 µM	> 100 µM	> 100 µM
Cn1c(COC(=O)NC2CCCCC2)c(COC(=O)NC2CCCCC2)c2ccc3cc(C=O)ccc3c21	> 100 µM	> 100 µM	> 100 µM	> 100 µM	> 100 µM	60.8 µM	> 100 µM	> 100 µM	> 100 µM	
NC1=Nc2ccccc2Sc2nc3ccccc3n21		77.9 µM	> 100 µM		> 100 µM	> 100 µM	> 100 µM	> 100 µM	> 100 µM	> 100 µM
CC1=CC(=O)/C(=C/n2c(=S)[nH]c3cc(C)ccc32)C(=O)O1	> 100 µM	> 100 µM	> 100 µM	> 100 µM	> 100 µM	> 100 µM	> 100 µM	> 100 µM	> 100 µM	
O=C1CC(C(COCc2ccccc2)OCc2ccccc2)CC(=O)N1 (centres undefined)	> 100 µM		> 100 µM	> 100 µM	> 100 µM		> 100 µM		> 100 µM	> 100 µM
C1=CN2C[n+]3ccc4ccccc4c3N=C2c2ccccc21	38.8 µM	47.8 µM	14.8 µM		> 100 µM		13.3 µM	4.26 µM	9.52 µM	4.66 µM
C[N+]1([O-])[C@H]2CC(OC(=O)[C@H](CO)c3ccccc3)C[C@H]1[C@H]1O[C@H]12 (some centres undefined)	> 100 µM	> 100 µM	> 100 µM		> 100 µM	> 100 µM	> 100 µM	> 100 µM	> 100 µM	> 100 µM
O=C(CC(c1ccccc1)C(C(=O)c1ccncc1)C(CC(=O)c1ccncc1)c1ccccc1)c1ccncc1 (centres undefined)	> 100 µM	61.1 µM		> 100 µM	> 100 µM	> 100 µM	> 100 µM	> 100 µM		> 100 µM
COc1cc([C@@H]2c3cc4c(cc3[C@@H](c3c(O)cc(O)c5c3O[C@H](c3ccc(O)c(O)c3)[C@H](OC(=O)c3cc(O)c(O)c(O)c3)C5)[C@H]3COC(=O)[C@H]23)OCO4)cc(OC)c1O	> 100 µM	> 100 µM	60.1 µM	92.3 µM	> 100 µM		> 100 µM	84.1 µM	> 100 µM	
N#Cc1ccc2[nH]c3c(c2c1)CC(=O)Nc1ccccc1-3	> 100 µM		> 100 µM	> 100 µM	> 100 µM	> 100 µM	> 100 µM	> 100 µM		> 100 µM
CC(C)=CCC[C@@H](C)C1=CC(=O)C(C)=C(O)C1=O	13.9 µM	31.8 µM		32.9 µM	8.08 µM	14 µM	> 23.5 µM	28.3 µM	22.6 µM	5.98 µM
O=C(NN1C(=O)C(Cl)C1c1ccccc1Cl)c1ccccc1O (centres undefined)		> 100 µM	> 100 µM	> 100 µM	> 100 µM	> 100 µM	> 100 µM		> 100 µM	
O=C(c1ccccc1O)c1cc(-c2ncc3c(=O)c4ccccc4oc3n2)c(-c2ccccc2O)[nH]c1=O	> 92 µM	85.2 µM	20.4 µM	38.2 µM	71 µM	> 100 µM	61.9 µM	> 100 µM	63.7 µM	
O=C(c1ccccc1)c1c(C(F)(F)F)n([O-])c2cc(F)c(F)cc2[n+]1=O	5 µM	> 49.5 µM	1.67 µM				1.97 µM	> 69.6 µM		
COc1cc(O)cc(O)c1C(=O)CC(Cl)(Cl)Cl	> 100 µM	> 100 µM	> 100 µM	> 100 µM	> 100 µM		> 100 µM	> 100 µM	> 100 µM	> 100 µM
C[N+](C)(C)CC(CC(=O)[O-])C1CC1 (centres undefined)	> 100 µM	> 100 µM	> 100 µM		> 100 µM	> 100 µM	> 100 µM	> 100 µM	> 100 µM	
COc1cccc([C@@H]2CC(=O)c3cc4c(cc3N2)OCO4)c1	> 100 µM	> 100 µM	> 100 µM	> 100 µM	> 100 µM	> 100 µM		> 100 µM	> 100 µM	
CC(C)(C)OC(=O)NC(CCCCNC(=O)CNC(=O)OCc1ccccc1)C(=O)NC(CCCCNC(=O)CNC(=O)OCc1ccccc1)C(=O)NC(CCCCNC(=O)CNC(=O)OCc1ccccc1)C(=O)NC(CCCCNC(=O)CNC(=O)OCc1ccccc1)C(=O)O (centres undefined) (Boc-K([Gly-Cbz])K([Gly-Cbz])K([Gly-Cbz])K([Gly-Cbz])-OH; configuration not given here)				> 100 µM	> 100 µM	> 100 µM	> 100 µM		> 100 µM	> 100 µM
